Activity calls are given as the source filed them.

For experiment [1], the target named is Non-receptor tyrosine-protein kinase TYK2 (Homo sapiens, UniProt P29597).
For experiment [2], the target named is T1, Dynamin-like GTPase OPA1, mitochondrial (Homo sapiens, UniProt O60313).
T1 sequence (O60313 whole entry): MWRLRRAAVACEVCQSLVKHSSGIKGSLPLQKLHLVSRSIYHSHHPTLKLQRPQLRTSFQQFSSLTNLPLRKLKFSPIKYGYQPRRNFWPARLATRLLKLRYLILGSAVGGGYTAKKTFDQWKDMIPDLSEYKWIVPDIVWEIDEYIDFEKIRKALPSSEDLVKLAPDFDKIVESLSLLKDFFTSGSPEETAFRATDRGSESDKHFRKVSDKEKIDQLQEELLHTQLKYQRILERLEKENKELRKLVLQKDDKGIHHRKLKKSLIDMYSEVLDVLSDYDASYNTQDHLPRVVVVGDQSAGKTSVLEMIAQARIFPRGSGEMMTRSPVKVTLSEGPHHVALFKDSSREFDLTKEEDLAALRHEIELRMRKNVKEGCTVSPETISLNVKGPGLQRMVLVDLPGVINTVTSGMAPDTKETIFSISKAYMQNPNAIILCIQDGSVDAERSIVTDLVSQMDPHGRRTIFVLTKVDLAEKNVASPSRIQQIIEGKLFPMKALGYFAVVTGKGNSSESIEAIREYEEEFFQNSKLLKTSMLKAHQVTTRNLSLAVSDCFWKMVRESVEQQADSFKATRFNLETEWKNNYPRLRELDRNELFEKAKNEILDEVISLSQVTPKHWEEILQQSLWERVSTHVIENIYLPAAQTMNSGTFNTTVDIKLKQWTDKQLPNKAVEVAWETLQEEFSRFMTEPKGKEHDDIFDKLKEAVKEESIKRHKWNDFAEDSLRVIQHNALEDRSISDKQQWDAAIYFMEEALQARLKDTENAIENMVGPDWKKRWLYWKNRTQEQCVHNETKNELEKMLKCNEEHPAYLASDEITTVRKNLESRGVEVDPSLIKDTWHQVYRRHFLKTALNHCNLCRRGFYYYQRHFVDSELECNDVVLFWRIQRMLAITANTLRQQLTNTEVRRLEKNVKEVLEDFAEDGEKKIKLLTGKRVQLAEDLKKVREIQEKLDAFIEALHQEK

The target of experiment [3] is T2, Serine/threonine-protein kinase NLK (Homo sapiens, UniProt Q9UBE8).
T2 sequence (Q9UBE8 whole entry): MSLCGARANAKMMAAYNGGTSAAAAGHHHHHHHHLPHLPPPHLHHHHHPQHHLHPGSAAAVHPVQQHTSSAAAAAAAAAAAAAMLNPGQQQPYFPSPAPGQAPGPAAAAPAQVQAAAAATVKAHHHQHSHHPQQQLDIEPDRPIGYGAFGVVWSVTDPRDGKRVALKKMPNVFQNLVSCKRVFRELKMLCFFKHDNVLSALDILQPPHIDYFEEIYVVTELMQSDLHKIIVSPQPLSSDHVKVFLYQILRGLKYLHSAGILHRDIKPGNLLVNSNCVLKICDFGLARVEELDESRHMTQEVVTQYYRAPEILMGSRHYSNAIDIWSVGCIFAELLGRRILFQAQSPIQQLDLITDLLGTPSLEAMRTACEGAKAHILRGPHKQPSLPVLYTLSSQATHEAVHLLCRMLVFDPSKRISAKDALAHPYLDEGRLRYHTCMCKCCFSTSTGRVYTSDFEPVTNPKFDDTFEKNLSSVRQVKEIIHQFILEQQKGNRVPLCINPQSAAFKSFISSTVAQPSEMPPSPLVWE

The target in the next experiment is T3, Activin receptor type-1 (Homo sapiens, UniProt Q04771).
T3 sequence (Q04771 whole entry): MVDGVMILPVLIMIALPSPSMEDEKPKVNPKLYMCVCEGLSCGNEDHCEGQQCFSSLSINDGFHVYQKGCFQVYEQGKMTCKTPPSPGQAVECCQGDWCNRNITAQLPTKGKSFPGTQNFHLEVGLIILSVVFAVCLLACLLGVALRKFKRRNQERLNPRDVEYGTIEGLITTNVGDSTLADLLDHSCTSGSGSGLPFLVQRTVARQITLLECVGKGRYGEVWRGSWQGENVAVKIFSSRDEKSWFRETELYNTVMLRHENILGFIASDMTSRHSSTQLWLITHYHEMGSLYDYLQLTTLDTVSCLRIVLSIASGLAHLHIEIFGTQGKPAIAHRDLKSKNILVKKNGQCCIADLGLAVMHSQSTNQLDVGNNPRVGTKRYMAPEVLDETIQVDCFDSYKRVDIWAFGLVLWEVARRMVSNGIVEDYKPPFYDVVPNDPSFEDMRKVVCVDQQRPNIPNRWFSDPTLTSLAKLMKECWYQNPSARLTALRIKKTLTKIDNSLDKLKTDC

For experiment [4], the target named is Mitogen-activated protein kinase kinase kinase kinase 1 (Homo sapiens, UniProt Q92918).
The target of experiment [5] is Structural maintenance of chromosomes protein 2 (Homo sapiens, UniProt O95347).
Experiment [6] has as its target T4, Very long-chain specific acyl-CoA dehydrogenase, mitochondrial (Homo sapiens, UniProt P49748).
T4 sequence (P49748 whole entry): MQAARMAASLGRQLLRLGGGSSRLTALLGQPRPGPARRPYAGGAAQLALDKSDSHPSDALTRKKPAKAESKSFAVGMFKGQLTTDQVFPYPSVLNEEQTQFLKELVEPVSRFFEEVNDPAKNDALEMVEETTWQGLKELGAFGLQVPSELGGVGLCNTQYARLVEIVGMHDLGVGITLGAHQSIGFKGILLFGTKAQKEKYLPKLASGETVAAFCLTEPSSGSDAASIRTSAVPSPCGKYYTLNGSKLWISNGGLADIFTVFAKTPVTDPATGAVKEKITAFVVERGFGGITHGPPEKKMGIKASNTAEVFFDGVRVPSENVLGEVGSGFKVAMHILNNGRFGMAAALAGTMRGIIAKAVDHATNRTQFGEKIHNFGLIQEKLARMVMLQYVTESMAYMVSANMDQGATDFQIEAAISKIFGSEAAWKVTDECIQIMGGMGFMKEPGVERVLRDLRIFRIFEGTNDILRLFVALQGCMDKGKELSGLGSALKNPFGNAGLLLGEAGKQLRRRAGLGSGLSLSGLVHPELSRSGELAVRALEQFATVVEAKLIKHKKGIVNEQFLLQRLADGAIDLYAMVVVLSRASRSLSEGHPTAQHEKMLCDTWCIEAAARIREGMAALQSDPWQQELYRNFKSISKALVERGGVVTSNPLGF
Further: in the data inactive means no Kd found up to 30 µM.

Mitogen-activated protein kinase kinase kinase kinase 1, sequence (Q92918 whole entry): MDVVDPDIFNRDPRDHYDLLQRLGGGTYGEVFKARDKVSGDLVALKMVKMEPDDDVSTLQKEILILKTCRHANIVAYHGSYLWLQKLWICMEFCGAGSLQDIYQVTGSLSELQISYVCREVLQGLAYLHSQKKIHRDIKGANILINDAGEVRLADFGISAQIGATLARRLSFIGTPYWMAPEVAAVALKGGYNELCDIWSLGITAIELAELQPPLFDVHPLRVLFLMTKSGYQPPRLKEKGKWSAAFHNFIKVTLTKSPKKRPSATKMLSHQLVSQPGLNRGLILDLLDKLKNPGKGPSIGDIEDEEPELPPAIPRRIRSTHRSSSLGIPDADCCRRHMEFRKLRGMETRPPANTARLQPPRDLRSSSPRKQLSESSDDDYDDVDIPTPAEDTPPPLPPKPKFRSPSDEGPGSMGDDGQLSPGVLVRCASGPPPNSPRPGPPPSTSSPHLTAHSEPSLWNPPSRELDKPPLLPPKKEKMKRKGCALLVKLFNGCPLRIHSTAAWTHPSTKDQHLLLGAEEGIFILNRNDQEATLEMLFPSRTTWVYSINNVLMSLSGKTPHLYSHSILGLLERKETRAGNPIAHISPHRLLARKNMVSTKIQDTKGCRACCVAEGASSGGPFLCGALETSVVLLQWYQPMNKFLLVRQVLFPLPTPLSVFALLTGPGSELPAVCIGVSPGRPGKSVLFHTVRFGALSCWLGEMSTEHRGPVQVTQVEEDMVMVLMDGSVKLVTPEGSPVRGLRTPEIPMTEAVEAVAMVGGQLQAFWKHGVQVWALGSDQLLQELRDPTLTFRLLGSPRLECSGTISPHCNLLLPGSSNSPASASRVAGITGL
Structural maintenance of chromosomes protein 2, sequence (O95347 whole entry): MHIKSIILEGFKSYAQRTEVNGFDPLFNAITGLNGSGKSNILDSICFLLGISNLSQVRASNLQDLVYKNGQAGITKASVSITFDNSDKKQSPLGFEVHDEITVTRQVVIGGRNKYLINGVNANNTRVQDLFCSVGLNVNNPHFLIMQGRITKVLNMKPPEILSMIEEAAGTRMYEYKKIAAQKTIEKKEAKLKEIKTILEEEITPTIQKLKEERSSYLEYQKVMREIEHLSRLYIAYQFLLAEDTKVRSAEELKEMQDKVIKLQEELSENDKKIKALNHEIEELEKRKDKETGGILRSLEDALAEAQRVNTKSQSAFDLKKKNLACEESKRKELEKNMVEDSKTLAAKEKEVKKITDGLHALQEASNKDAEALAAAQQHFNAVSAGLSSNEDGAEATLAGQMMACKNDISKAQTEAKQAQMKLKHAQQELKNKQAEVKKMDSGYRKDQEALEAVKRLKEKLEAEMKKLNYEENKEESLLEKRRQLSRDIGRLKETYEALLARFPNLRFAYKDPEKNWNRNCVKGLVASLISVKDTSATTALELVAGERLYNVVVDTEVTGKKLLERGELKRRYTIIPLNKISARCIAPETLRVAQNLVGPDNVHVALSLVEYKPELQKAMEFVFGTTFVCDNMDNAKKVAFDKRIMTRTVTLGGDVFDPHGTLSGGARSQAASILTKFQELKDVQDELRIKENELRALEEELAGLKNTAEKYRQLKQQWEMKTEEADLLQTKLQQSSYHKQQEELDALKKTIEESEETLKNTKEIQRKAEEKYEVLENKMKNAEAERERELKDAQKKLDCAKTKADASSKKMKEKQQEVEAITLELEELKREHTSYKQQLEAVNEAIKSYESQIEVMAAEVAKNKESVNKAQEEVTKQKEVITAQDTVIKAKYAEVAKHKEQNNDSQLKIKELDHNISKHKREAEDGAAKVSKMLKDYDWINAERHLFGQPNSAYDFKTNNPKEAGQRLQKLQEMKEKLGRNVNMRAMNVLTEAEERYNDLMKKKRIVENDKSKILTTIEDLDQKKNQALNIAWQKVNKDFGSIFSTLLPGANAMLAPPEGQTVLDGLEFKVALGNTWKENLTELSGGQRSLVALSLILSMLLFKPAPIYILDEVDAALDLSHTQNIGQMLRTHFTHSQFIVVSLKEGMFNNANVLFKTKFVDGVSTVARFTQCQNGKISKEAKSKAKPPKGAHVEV
Non-receptor tyrosine-protein kinase TYK2, sequence (P29597 whole entry): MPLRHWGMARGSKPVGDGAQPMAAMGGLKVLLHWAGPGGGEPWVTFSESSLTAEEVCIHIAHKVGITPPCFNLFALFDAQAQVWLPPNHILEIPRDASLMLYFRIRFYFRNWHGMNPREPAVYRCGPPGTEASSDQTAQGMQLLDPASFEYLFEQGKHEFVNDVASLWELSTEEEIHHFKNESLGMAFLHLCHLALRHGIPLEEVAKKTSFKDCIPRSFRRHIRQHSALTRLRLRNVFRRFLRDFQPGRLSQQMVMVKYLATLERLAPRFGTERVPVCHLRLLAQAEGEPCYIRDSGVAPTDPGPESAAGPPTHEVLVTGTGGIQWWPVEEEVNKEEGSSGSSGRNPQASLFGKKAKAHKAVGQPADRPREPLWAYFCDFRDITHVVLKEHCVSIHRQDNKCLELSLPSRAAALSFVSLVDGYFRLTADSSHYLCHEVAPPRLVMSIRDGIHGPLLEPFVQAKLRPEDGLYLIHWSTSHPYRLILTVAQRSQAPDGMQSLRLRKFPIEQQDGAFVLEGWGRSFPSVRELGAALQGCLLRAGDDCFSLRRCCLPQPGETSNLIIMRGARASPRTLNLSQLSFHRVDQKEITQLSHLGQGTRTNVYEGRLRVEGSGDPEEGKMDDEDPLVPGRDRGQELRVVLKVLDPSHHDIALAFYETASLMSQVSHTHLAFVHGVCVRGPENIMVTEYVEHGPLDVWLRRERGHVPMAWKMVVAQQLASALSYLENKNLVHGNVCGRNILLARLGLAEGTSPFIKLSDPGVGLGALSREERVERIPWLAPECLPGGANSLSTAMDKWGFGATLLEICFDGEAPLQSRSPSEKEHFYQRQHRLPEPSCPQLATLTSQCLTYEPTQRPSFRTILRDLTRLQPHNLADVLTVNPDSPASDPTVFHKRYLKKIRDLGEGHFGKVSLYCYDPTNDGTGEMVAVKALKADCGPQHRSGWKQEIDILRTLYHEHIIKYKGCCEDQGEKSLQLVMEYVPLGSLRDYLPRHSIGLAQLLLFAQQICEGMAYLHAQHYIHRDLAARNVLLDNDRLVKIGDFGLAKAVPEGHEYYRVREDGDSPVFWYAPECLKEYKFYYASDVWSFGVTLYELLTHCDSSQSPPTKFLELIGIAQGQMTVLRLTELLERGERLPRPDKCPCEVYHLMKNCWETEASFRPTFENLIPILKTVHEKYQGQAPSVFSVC

What is called Kd is a measure of binding affinity in units of concentration. `COc1ncc(-c2ccc3nccc(-c4ccnnc4)c3c2)cc1NS(=O)(=O)c1ccc(F)cc1F` [OMIPALISIB]: the Kd (in experiment [1]; in experiment [2]; in experiment [3]; on Activin receptor type-1; in experiment [4]; in experiment [5]) was > 30 µM (inactive) in each case. Further, the Kd in experiment [6] was > 30 µM (inactive).

For the compound `CCOc1cc2ncc(C#N)c(Nc3ccc(F)c(Cl)c3)c2cc1NC(=O)/C=C/CN(C)C` [PELITINIB], the Kd in experiment [1] was > 30 µM (inactive); in experiment [2] it was > 30 µM (inactive); in experiment [3], > 30 µM (inactive); at Activin receptor type-1, > 30 µM (inactive); in experiment [4], 1.1 µM (active); in experiment [5] it was > 30 µM (inactive). In addition, the Kd in experiment [6] is > 30 µM (inactive).

For `CCCCCCCCCCCCCCCCCCOP(=O)([O-])OC1CC[N+](C)(C)CC1` [PERIFOSINE], the Kd (in experiment [1]; in experiment [2]; in experiment [3]; on Activin receptor type-1; in experiment [4]; in experiment [5]) was > 30 µM (inactive) each time. Moreover, the Kd in experiment [6] is > 30 µM (inactive).

Consider `Cc1nc(Nc2n[nH]c3c2CN(C(=O)N[C@H](CN(C)C)c2ccccc2)C3(C)C)c2sccc2n1` [PF-03758309], for which the Kd in experiment [1] is > 30 µM (inactive); in experiment [2], > 30 µM (inactive); in experiment [3], > 30 µM (inactive); on Activin receptor type-1 it was > 30 µM (inactive); in experiment [4], 2.3 µM (active); in experiment [5], > 30 µM (inactive). Besides, the Kd in experiment [6] was > 30 µM (inactive).

As to `Cc1cnc(NC(=O)Nc2cc(Br)c(C)cc2OC[C@@H]2CNCCO2)cn1` [RABUSERTIB], the Kd (in experiment [1]; in experiment [2]; in experiment [3]; at Activin receptor type-1; in experiment [4]; in experiment [5]) was > 30 µM (inactive) in each case. For the same compound, the Kd in experiment [6] is > 30 µM (inactive).

Regarding `CNC(=O)c1cc(Oc2ccc(NC(=O)Nc3cc(C(C)(C)C)nn3-c3ccc4ncccc4c3)c(F)c2)ccn1` [REBASTINIB], the Kd is > 30 µM (inactive) in experiment [1]; > 30 µM (inactive) in experiment [2]; > 30 µM (inactive) in experiment [3]; > 30 µM (inactive) at Activin receptor type-1; 0.566 µM (active) in experiment [4]; > 30 µM (inactive) in experiment [5]. In addition, in experiment [6], the Kd was > 30 µM (inactive).

As to `CO[C@H]1C[C@@H]2CC[C@@H](C)[C@@](O)(O2)C(=O)C(=O)N2CCCC[C@H]2C(=O)O[C@H]([C@H](C)C[C@@H]2CC[C@@H](OP(C)(C)=O)[C@H](OC)C2)CC(=O)[C@H](C)/C=C(\C)[C@@H](O)[C@@H](OC)C(=O)[C@H](C)C[C@H](C)/C=C/C=C/C=C/1C` [RIDAFOROLIMUS], the Kd (in experiment [1]; in experiment [2]; in experiment [3]; at Activin receptor type-1; in experiment [4]; in experiment [5]) was > 30 µM (inactive) in each case. In experiment [6], the Kd is > 30 µM (inactive).

As to `N#CC1(c2ccc(NC(=O)c3cccnc3NCc3ccncc3)cc2)CCCC1` [RIVOCERANIB], the Kd (in experiment [1]; in experiment [2]; in experiment [3]; on Activin receptor type-1; in experiment [4]; in experiment [5]) was > 30 µM (inactive) throughout. In addition, the Kd in experiment [6] was > 30 µM (inactive).

Consider `O=c1[nH]ccc2cc(OC3CCNCC3)ccc12` [SAR-407899 FREE BASE], for which the Kd (in experiment [1]; in experiment [2]; in experiment [3]; at Activin receptor type-1; in experiment [4]; in experiment [5]) was > 30 µM (inactive) throughout. Also, the Kd in experiment [6] is > 30 µM (inactive).

With `CN1CCN(CCOc2cc(OC3CCOCC3)c3c(Nc4c(Cl)ccc5c4OCO5)ncnc3c2)CC1` [SARACATINIB], the Kd in experiment [1] was > 30 µM (inactive); in experiment [2] it was > 30 µM (inactive); in experiment [3] it was > 30 µM (inactive); on Activin receptor type-1 it was 0.004 µM (active); in experiment [4], > 30 µM (inactive); in experiment [5] it was > 30 µM (inactive). Further, the Kd in experiment [6] is > 30 µM (inactive).

Turning to `Cn1cc(-c2cnn3c(N)c(Br)c([C@@H]4CCCNC4)nc23)cn1` [SCH-900776], the Kd (in experiment [1]; in experiment [2]; in experiment [3]; at Activin receptor type-1; in experiment [4]; in experiment [5]) was > 30 µM (inactive) throughout. Further, the Kd in experiment [6] is > 30 µM (inactive).

With `CO[C@H]1C[C@@H]2CC[C@@H](C)[C@@](O)(O2)C(=O)C(=O)N2CCCC[C@H]2C(=O)O[C@H]([C@H](C)C[C@@H]2CC[C@@H](O)[C@H](OC)C2)CC(=O)[C@H](C)/C=C(\C)[C@@H](O)[C@@H](OC)C(=O)[C@H](C)C[C@H](C)/C=C/C=C/C=C/1C` [SIROLIMUS], the Kd (in experiment [1]; in experiment [2]; in experiment [3]; at Activin receptor type-1; in experiment [4]; in experiment [5]) was > 30 µM (inactive) in each case. Besides, the Kd in experiment [6] is > 30 µM (inactive).

As to `CCS(=O)(=O)c1cccc(-c2cc(C(=O)NC3CCN(C)CC3)c(C)c3[nH]c4ncc(C)cc4c23)c1` [TAK-901], the Kd in experiment [1] was > 30 µM (inactive); in experiment [2], > 30 µM (inactive); in experiment [3], > 30 µM (inactive); at Activin receptor type-1 it was 0.249 µM (active); in experiment [4] it was > 30 µM (inactive); in experiment [5], > 30 µM (inactive). Further, in experiment [6], the Kd was > 30 µM (inactive).

The values are drawn from ChEMBL document CHEMBL3991601, “The target landscape of clinical kinase drugs” (Science, 2017).
